From patent US20110173718A1, “HERBICIDE TOLERANT PLANTS” (SYNGENTA CROP PROTECTION, INC., priority 2008, published 2011)

Test system: weeds
Test: Glasshouse weed control by HST/HPPD (mesotrione) mixtures, pre-emergence
Format: in vivo
Conditions: for colby: Colby synergy score; for % Damage at 14 DAA, 1 g ai ha^−1 mesotrione / % Damage at 14 DAA, no-mesotrione: N = 3
Protocol: Weed seeds are planted out in trays containing suitable soil (for example 50% peat, 50% John Innes soil no 3) and grown in the glass house conditions under 24-27° C. day; 18-21° C. night and approximately a 14 h (or longer in UK summer) photoperiod. Humidity is ˜65% and light levels up to 2000 μmol/m^2 at bench level. Trays are sprayed with test chemicals dissolved in water with 0.2-0.25% X-77 surfactant and sprayed from a boom on a suitable track sprayer moving at about 2 mph in a suitable track sprayer (for example a DeVries spray chamber with the nozzle about 2 inches from the plant tops). Spray volume is suitably 500-1000 l/ha. Sprays are carried out both pre-emergence and over small plants at about 7-12 d post-emergence
Plants are assessed 14 DAT and herbicidal damage is scored on a scale from 0 to 100%. The HST inhibitor compound 2.30 (designated compound A in table 16 and 17), haloxydine (compound 1.1) and compound 2.13 (designated compound AE in tables 16 and 17) are sprayed at rates between 0 and 500 g/ha.

[1] = ALOMY, 16 g/ha + mesotrione 1 g ai/ha
[2] = ALOMY, 31 g/ha + mesotrione 1 g ai/ha
[3] = ALOMY, 63 g/ha + mesotrione 1 g ai/ha
[4] = ALOMY, 125 g/ha + mesotrione 1 g ai/ha
[5] = ALOMY, 250 g/ha + mesotrione 1 g ai/ha
[6] = ALOMY, 500 g/ha + mesotrione 1 g ai/ha
[7] = AMARE, 16 g/ha + mesotrione 1 g ai/ha
[8] = AMARE, 31 g/ha + mesotrione 1 g ai/ha
[9] = AMARE, 63 g/ha + mesotrione 1 g ai/ha
[10] = AMARE, 125 g/ha + mesotrione 1 g ai/ha
[11] = AMARE, 250 g/ha + mesotrione 1 g ai/ha
[12] = AMARE, 500 g/ha + mesotrione 1 g ai/ha
[13] = ECHCG, 16 g/ha + mesotrione 1 g ai/ha
[14] = ECHCG, 31 g/ha + mesotrione 1 g ai/ha
[15] = ECHCG, 63 g/ha + mesotrione 1 g ai/ha
[16] = ECHCG, 125 g/ha + mesotrione 1 g ai/ha
[17] = ECHCG, 250 g/ha + mesotrione 1 g ai/ha
[18] = ECHCG, 500 g/ha + mesotrione 1 g ai/ha
[19] = IPOHE, 16 g/ha + mesotrione 1 g ai/ha
[20] = IPOHE, 31 g/ha + mesotrione 1 g ai/ha
[21] = IPOHE, 63 g/ha + mesotrione 1 g ai/ha
[22] = IPOHE, 125 g/ha + mesotrione 1 g ai/ha
[23] = IPOHE, 250 g/ha + mesotrione 1 g ai/ha
[24] = IPOHE, 500 g/ha + mesotrione 1 g ai/ha
[25] = SETFA, 16 g/ha + mesotrione 1 g ai/ha
[26] = SETFA, 31 g/ha + mesotrione 1 g ai/ha
[27] = SETFA, 63 g/ha + mesotrione 1 g ai/ha
[28] = SETFA, 125 g/ha + mesotrione 1 g ai/ha
[29] = SETFA, 250 g/ha + mesotrione 1 g ai/ha
[30] = SETFA, 500 g/ha + mesotrione 1 g ai/ha
[31] = SOLNI, 16 g/ha + mesotrione 1 g ai/ha
[32] = SOLNI, 31 g/ha + mesotrione 1 g ai/ha
[33] = SOLNI, 63 g/ha + mesotrione 1 g ai/ha
[34] = SOLNI, 125 g/ha + mesotrione 1 g ai/ha
[35] = SOLNI, 250 g/ha + mesotrione 1 g ai/ha
[36] = SOLNI, 500 g/ha + mesotrione 1 g ai/ha

CC(C)C(=O)Oc1c(-c2c(F)ccc(Br)c2Cl)c(=O)n(CC(F)F)c2nccnc12 [Compound 2.30]
16%: colby [12]
3%: % Damage at 14 DAA, no-mesotrione (IPOHE, 500 g/ha) | colby [29] | % Damage at 14 DAA, no-mesotrione (SETFA, 250 g/ha) | % Damage at 14 DAA, 1 g ai ha^−1 mesotrione [33] | % Damage at 14 DAA, no-mesotrione (SOLNI, 250 g/ha)
45%: % Damage at 14 DAA, no-mesotrione (SOLNI, 500 g/ha)
18%: % Damage at 14 DAA, no-mesotrione (ECHCG, 500 g/ha)
0%: colby [1] | % Damage at 14 DAA, 1 g ai ha^−1 mesotrione [1] | % Damage at 14 DAA, no-mesotrione (ALOMY, 16 g/ha) | colby [2] | % Damage at 14 DAA, 1 g ai ha^−1 mesotrione [2] | % Damage at 14 DAA, no-mesotrione (ALOMY, 31 g/ha) | colby [3] | % Damage at 14 DAA, 1 g ai ha^−1 mesotrione [3] | % Damage at 14 DAA, no-mesotrione (ALOMY, 63 g/ha) | colby [4] | % Damage at 14 DAA, 1 g ai ha^−1 mesotrione [4] | % Damage at 14 DAA, no-mesotrione (ALOMY, 125 g/ha) | % Damage at 14 DAA, 1 g ai ha^−1 mesotrione [5] | % Damage at 14 DAA, 1 g ai ha^−1 mesotrione [7] | % Damage at 14 DAA, no-mesotrione (AMARE, 16 g/ha) | % Damage at 14 DAA, 1 g ai ha^−1 mesotrione [8] | % Damage at 14 DAA, no-mesotrione (AMARE, 31 g/ha) | % Damage at 14 DAA, no-mesotrione (AMARE, 63 g/ha) | colby [13] | % Damage at 14 DAA, 1 g ai ha^−1 mesotrione [13] | % Damage at 14 DAA, no-mesotrione (ECHCG, 16 g/ha) | colby [14] | % Damage at 14 DAA, 1 g ai ha^−1 mesotrione [14] | % Damage at 14 DAA, no-mesotrione (ECHCG, 31 g/ha) | colby [15] | % Damage at 14 DAA, 1 g ai ha^−1 mesotrione [15] | % Damage at 14 DAA, no-mesotrione (ECHCG, 63 g/ha) | % Damage at 14 DAA, 1 g ai ha^−1 mesotrione [16] | colby [17] | colby [19] | % Damage at 14 DAA, 1 g ai ha^−1 mesotrione [19] | % Damage at 14 DAA, no-mesotrione (IPOHE, 16 g/ha) | colby [20] | % Damage at 14 DAA, 1 g ai ha^−1 mesotrione [20] | % Damage at 14 DAA, no-mesotrione (IPOHE, 31 g/ha) | colby [21] | % Damage at 14 DAA, 1 g ai ha^−1 mesotrione [21] | % Damage at 14 DAA, no-mesotrione (IPOHE, 63 g/ha) | colby [22] | % Damage at 14 DAA, 1 g ai ha^−1 mesotrione [22] | % Damage at 14 DAA, no-mesotrione (IPOHE, 125 g/ha) | % Damage at 14 DAA, 1 g ai ha^−1 mesotrione [23] | colby [25] | % Damage at 14 DAA, 1 g ai ha^−1 mesotrione [25] | % Damage at 14 DAA, no-mesotrione (SETFA, 16 g/ha) | colby [26] | % Damage at 14 DAA, 1 g ai ha^−1 mesotrione [26] | % Damage at 14 DAA, no-mesotrione (SETFA, 31 g/ha) | colby [27] | % Damage at 14 DAA, 1 g ai ha^−1 mesotrione [27] | % Damage at 14 DAA, no-mesotrione (SETFA, 63 g/ha) | % Damage at 14 DAA, 1 g ai ha^−1 mesotrione [28] | % Damage at 14 DAA, 1 g ai ha^−1 mesotrione [31] | % Damage at 14 DAA, no-mesotrione (SOLNI, 16 g/ha) | % Damage at 14 DAA, no-mesotrione (SOLNI, 31 g/ha) | % Damage at 14 DAA, no-mesotrione (SOLNI, 63 g/ha)
75%: % Damage at 14 DAA, 1 g ai ha^−1 mesotrione [36]
29%: colby [10]
−11%: colby [34]
73%: % Damage at 14 DAA, no-mesotrione (AMARE, 500 g/ha)
−2%: colby [5] | colby [7] | colby [8] | colby [16] | colby [23] | colby [28]
47%: % Damage at 14 DAA, 1 g ai ha^−1 mesotrione [11]
13%: colby [24]
5%: % Damage at 14 DAA, 1 g ai ha^−1 mesotrione [17] | % Damage at 14 DAA, no-mesotrione (ECHCG, 250 g/ha)
32%: % Damage at 14 DAA, 1 g ai ha^−1 mesotrione [30]
17%: % Damage at 14 DAA, 1 g ai ha^−1 mesotrione [24]
90%: % Damage at 14 DAA, 1 g ai ha^−1 mesotrione [12]
21%: colby [36]
20%: % Damage at 14 DAA, 1 g ai ha^−1 mesotrione [6]
2%: % Damage at 14 DAA, no-mesotrione (ALOMY, 250 g/ha) | % Damage at 14 DAA, no-mesotrione (ECHCG, 125 g/ha) | % Damage at 14 DAA, no-mesotrione (IPOHE, 250 g/ha) | % Damage at 14 DAA, no-mesotrione (SETFA, 125 g/ha) | % Damage at 14 DAA, no-mesotrione (SOLNI, 125 g/ha)
40%: % Damage at 14 DAA, 1 g ai ha^−1 mesotrione [10]
11%: colby [35]
9%: colby [11]
30%: % Damage at 14 DAA, 1 g ai ha^−1 mesotrione [35]
−17%: colby [31]
10%: colby [6] | % Damage at 14 DAA, no-mesotrione (ALOMY, 500 g/ha) | % Damage at 14 DAA, 1 g ai ha^−1 mesotrione [9] | % Damage at 14 DAA, no-mesotrione (AMARE, 125 g/ha) | colby [30]
7%: % Damage at 14 DAA, 1 g ai ha^−1 mesotrione [29] | % Damage at 14 DAA, 1 g ai ha^−1 mesotrione [32]
37%: % Damage at 14 DAA, no-mesotrione (AMARE, 250 g/ha)
−13%: colby [33]
27%: % Damage at 14 DAA, 1 g ai ha^−1 mesotrione [18]
22%: % Damage at 14 DAA, no-mesotrione (SETFA, 500 g/ha)
8%: colby [9] | colby [18] | % Damage at 14 DAA, 1 g ai ha^−1 mesotrione [34]
−10%: colby [32]
